Test results published in patent US20110065581A1, “Liquid Compositions Containing S-(+)-Abscisic Acid in Combination with Selected Lipophilic Agents and Methods of their Preparation” (priority 2007, published 2011).
Structures can show the parent of a compound that is named as a salt.

Assays:
Rutgers tomato seedlings = test: Transpiration rate of Rutgers tomato seedlings after foliar spray (LiCor 1600 porometer); assay type: in vivo; conditions: for Transpiration rate as a percentage of control, Average of days 1, 2, and 3 after treatment: average of days 1-3
Procedure: (§1) Seedlings of Rutgers Tomato were sprayed with 4 ml water or treatment solution at the 3-4 leaf stage and held under well watered conditions in a greenhouse. Transpiration was measured daily for 3 days after treatment with a LiCor 1600 porometer. Transpiration readings were converted to percent of control to compensate for daily differences due to environmental factors like light intensity, humidity, and temperature.

Rutgers Tomato = test: Relative suppression effect of selective S-(+)-ABA formulations on Rutgers Tomato (regression); assay type: in vivo; conditions: treatment at 100 ppm
Procedure: as §1

[1] = cited from earlier work

CC1=CC(=O)CC(C)(C)[C@@]1(O)/C=C/C(C)=C\C(=O)O [ABA, ammonium salt of (S)-(+)-abscisic acid]
Transpiration rate as a percentage of the transpiration rate of control plants, 1 day after treatment (Rutgers tomato seedlings; 75 ppm spray, 4 ml, 3-4 leaf stage): 91% | Transpiration rate as a percentage of the transpiration rate of control plants, 2 days after treatment (Rutgers tomato seedlings; 75 ppm spray): 94% | Transpiration rate as a percentage of the transpiration rate of control plants, 3 days after treatment (Rutgers tomato seedlings; 75 ppm spray): 72% | Transpiration rate as a percentage of control, Average of days 1, 2, and 3 after treatment (Rutgers tomato seedlings; 75 ppm spray): 86% | Transpiration rate as a percentage of the transpiration rate of control plants, 1 day after treatment (Rutgers tomato seedlings; 250 ppm spray): 72% | Transpiration rate as a percentage of the transpiration rate of control plants, 2 days after treatment (Rutgers tomato seedlings; 250 ppm spray): 102% | Transpiration rate as a percentage of the transpiration rate of control plants, 3 days after treatment (Rutgers tomato seedlings; 250 ppm spray): 75% | Transpiration rate as a percentage of control, Average of days 1, 2, and 3 after treatment (Rutgers tomato seedlings; 250 ppm spray): 83% | Transpiration rate as a percentage of the transpiration rate of control plants, 1 day after treatment (Rutgers tomato seedlings; 750 ppm spray): 60% | Transpiration rate as a percentage of the transpiration rate of control plants, 2 days after treatment (Rutgers tomato seedlings; 750 ppm spray): 83% | Transpiration rate as a percentage of the transpiration rate of control plants, 3 days after treatment (Rutgers tomato seedlings; 750 ppm spray): 68% | Transpiration rate as a percentage of control, Average of days 1, 2, and 3 after treatment (Rutgers tomato seedlings; 750 ppm spray): 70% | Transpiration rate as a percentage of the transpiration rate of control plants, 1 day after treatment (Rutgers tomato seedlings; 2500 ppm spray): 36% | Transpiration rate as a percentage of the transpiration rate of control plants, 2 days after treatment (Rutgers tomato seedlings; 2500 ppm spray): 35% | Transpiration rate as a percentage of the transpiration rate of control plants, 3 days after treatment (Rutgers tomato seedlings; 2500 ppm spray): 43% | Transpiration rate as a percentage of control, Average of days 1, 2, and 3 after treatment (Rutgers tomato seedlings; 2500 ppm spray): 38% | Effect of spraying on transpiration (in words) (Rutgers tomato seedlings; Rutgers tomato seedlings, spray): reduced transpiration in a dose dependant manner | Equivalent to s-ABA (ppm) ABA (ppm) (Rutgers Tomato; Rutgers Tomato, regression): 100 ppm | Log[ABA] (Rutgers Tomato; log of equivalent s-ABA ppm): 2.00 | (Regression) Calculated Enhancement (Rutgers Tomato; relative to 100 ppm ABA): 1.00

CC1=CC(=O)CC(C)(C)[C@@]1(O)/C=C/C(C)=C\C(=O)O [abscisic acid, S-(+)-abscisic acid]
solubility in hard water (in words) ([1]; hard water, compared with pure water): even less | highest concentration that can be achieved in pure water ([1]; pure water at room temperature): about 3000 ppm | water solubility ([1]; water at 24° C.): ~3 grams/1000 mL
